system: neutrophils; test: Neutrophil calcium flux assay (5-OXO-ETE-stimulated, Indo-1 fluorescence); type: cell-based; settings: Neutrophil, 5-OXO-ETE-stimulated calcium flux
Protocol: After isolation, neutrophils were resuspended in PBS without calcium and Magnesium (PBS −/−) at a concentration of 5×10^6 cells/ml. 2ul of Indo-1 (1 mM) were added per ml of cells. After incubation at 37° C. for 30 minutes, cells were washed twice in PBS −/− and resuspended at 5×10^6 cells/ml in assay buffer (HBSS 1× with calcium and magnesium and […]). In a 96-well Black optical clear bottom plate 100 μL of neutrophil were dispensed to each well. After incubation at 37° C. for 5 minutes, 50 μL of assay buffer or 3× antagonist were added and incubated for 5 min in a Tecan Spark plate reader (Tecan, Morrisville, NC). Baseline was measured for 30 sec (wavelength setup: excitation: 331 nm and emission:410 nm). When baseline is stable, 50p of 5-OXO-ETE at 200 nM (4×) or HBSS was added to appropriate wells. Fluorescence was measured every 5 seconds for 30 cycles. Results are expressed as Net fluorescence (FLU minus Background and injection peak). All data were analyzed using GraphPad Prism version 9 for Windows (GraphPad, San Diego, CA).

Which IC50 does the source give for `Cn1c(CCCCCCc2cccc(Cl)c2)c(C(=O)N2CCC[C@H]2CC(=O)O)c2cc(Cl)ccc21` [Compound I-121] here?
Its IC50 is greater than 300 nM.

For `C[C@H](CC(=O)O)CC(=O)c1c(CCCCCN(C)c2ncccn2)n(C)c2ccc(Cl)cc12` [Compound I-124], which IC50 is on record?
Its IC50 is 100 to 300 nM.

For `CC(=O)NCCCCCc1c(C(=O)C[C@H](C)CC(=O)O)c2cc(Cl)ccc2n1C` [Compound I-126], which IC50 is on record?
The IC50 was greater than 300 nM.

`C[C@H](CC(=O)O)CC(=O)c1c(CCCCCNC(=O)C2CC2)n(C)c2ccc(Cl)cc12` [Compound I-127] was tested. Which IC50 did it give?
The IC50 was greater than 300 nM.

`C[C@H](CC(=O)O)CC(=O)c1c(CCCCCNc2ccccn2)n(C)c2ccc(Cl)cc12` [Compound I-128] was tested. Which IC50 did it give?
Its IC50 is greater than 300 nM.

With `C[C@H](CC(=O)O)CC(=O)c1c(CCCCCNc2cnccn2)n(C)c2ccc(Cl)cc12` [Compound I-129] as the molecule, how does the IC50 read?
The IC50 was greater than 300 nM.

For `C[C@H](CC(=O)O)CC(=O)c1c(CCCCCOc2ncccn2)n(C)c2ccc(Cl)cc12` [Compound I-130], which IC50 is on record?
Its IC50 is greater than 300 nM.

For `C[C@H](CC(=O)O)CC(=O)c1c(CCCCCOc2ccccn2)n(C)c2ccc(Cl)cc12` [Compound I-131], which IC50 is on record?
The IC50 was greater than 300 nM.

With `C[C@H](CC(=O)O)CC(=O)c1c(CCCCCOc2cnccn2)n(C)c2ccc(Cl)cc12` [Compound I-132] as the molecule, how does the IC50 read?
Its IC50 is greater than 300 nM.

How did the IC50 turn out when `COC(=O)NCCCCCc1c(C(=O)CC(C)CC(=O)O)c2cc(Cl)ccc2n1C` (stereo not drawn) [Compound I-134] was run?
Its IC50 is greater than 300 nM.

`C[C@H](CC(=O)O)CC(=O)c1c(CCOCCNc2cccnc2)n(C)c2ccc(Cl)cc12` [Compound I-137] was tested. Which IC50 did it give?
Its IC50 is greater than 300 nM.

`CC(CC(=O)O)CC(=O)c1c(CCOCCNc2cccnc2)n(C)c2ncc(Cl)cc12` (stereo not drawn) [Compound I-139] was tested. Which IC50 did it give?
Its IC50 is greater than 300 nM.

Which IC50 does the source give for `C[C@H](CC(=O)O)CC(=O)c1c(CCCCCNc2cccnc2)n(C)c2ncc(Cl)cc12` [Compound I-140] here?
The IC50 was greater than 300 nM.

With `C[C@H](CC(=O)O)CC(=O)c1c(CCCCCNc2cccnc2)n(C)c2ccc(Cl)cc12` [Compound I-141] as the molecule, how does the IC50 read?
The IC50 was greater than 300 nM.

With `C[C@H](CC(=O)O)CC(=O)c1c(CCOCCNc2cccc(Cl)c2)n(C)c2ccc(Cl)cc12` [Compound I-142] as the molecule, how does the IC50 read?
The IC50 was less than 100 nM.

For `C[C@H](CC(=O)O)CC(=O)c1c(CCCCCCc2cccc(Cl)c2)[nH]c2ccc(Cl)cc12` [Compound I-144], which IC50 is on record?
Its IC50 is less than 100 nM.

`C[C@H](CC(=O)O)CC(=O)c1c(CCCCc2nc3cc(Cl)ccc3o2)n(C)c2ccc(Cl)cc12` [Compound I-145] was tested. Which IC50 did it give?
The IC50 was greater than 300 nM.

How did the IC50 turn out when `C[C@H](CC(=O)O)CC(=O)c1c(CCCCC(=O)Nc2cc(Cl)ccc2O)n(C)c2ccc(Cl)cc12` [Compound I-146] was run?
The IC50 was 100 to 300 nM.

`Cn1c(CCCCCCc2cccc(Cl)c2)c(C(=O)N2CC[C@H](C(=O)O)C2)c2cc(Cl)cnc21` [Compound I-147] was tested. Which IC50 did it give?
Its IC50 is greater than 300 nM.

For `Cn1c(CCCCCNc2cccc(Cl)c2)c(C(=O)N2CC[C@H](C(=O)O)C2)c2cc(Cl)cnc21` [Compound I-148], which IC50 is on record?
Its IC50 is greater than 300 nM.

For `Cn1c(CCCCCCc2cccc(Cl)c2)c(C(=O)N2CC[C@H](c3nnn[nH]3)C2)c2cc(Cl)cnc21` [Compound I-149], which IC50 is on record?
Its IC50 is less than 100 nM.

`CC(CCC(=O)c1c(CCCCCCc2cccc(Cl)c2)n(C)c2ccc(Cl)cc12)C(=O)O` (stereo not drawn) [Compound I-150] was tested. Which IC50 did it give?
The IC50 was greater than 300 nM.

With `Cn1c(CCCCCCc2cccc(Cl)c2)c(C(=O)N2CC(C(=O)O)C2)c2cc(Cl)ccc21` [Compound I-151] as the molecule, how does the IC50 read?
The IC50 was 100 to 300 nM.

How did the IC50 turn out when `Cn1c(CCCCCCc2cccc(Cl)c2)c(C(=O)N2CC(CC(=O)O)C2)c2cc(Cl)ccc21` [Compound I-152] was run?
Its IC50 is greater than 300 nM.

With `Cn1c(CCCCCCc2cccc(Cl)c2)c(C(=O)N2CC(C(=O)O)C2)c2cc(Cl)cnc21` [Compound I-153] as the molecule, how does the IC50 read?
The IC50 was greater than 300 nM.

For `Cn1c(CCCCCCc2cccc(Cl)c2)c(C(=O)N2CC(CC(=O)O)C2)c2cc(Cl)cnc21` [Compound I-154], which IC50 is on record?
The IC50 was greater than 300 nM.

Which IC50 does the source give for `Cn1c(CCCCCCc2cccc(Cl)c2)c(C(=O)N2CCC[C@H](C(=O)O)C2)c2cc(Cl)ccc21` [Compound I-155] here?
The IC50 was 100 to 300 nM.

How did the IC50 turn out when `Cn1c(CCCCCCc2cccc(Cl)c2)c(C(=O)N2CCC[C@@H](C(=O)O)C2)c2cc(Cl)ccc21` [Compound I-156] was run?
The IC50 was greater than 300 nM.

With `Cn1c(CCCCCCc2cccc(Cl)c2)c(C(=O)N2CCC(C)(C(=O)O)C2)c2cc(Cl)ccc21` (stereo not drawn) [Compound I-157] as the molecule, how does the IC50 read?
Its IC50 is greater than 300 nM.

With `Cn1ccc(C(=O)N2CC[C@H](C(=O)O)C2)c1CCCCOCc1cccc(Cl)c1` [Compound I-162] as the molecule, how does the IC50 read?
Its IC50 is greater than 300 nM.

With `Cn1cc(-c2ccccc2Cl)c(C(=O)N2CC[C@H](C(=O)O)C2)c1CCCCOCc1cccc(Cl)c1` [Compound I-166] as the molecule, how does the IC50 read?
Its IC50 is greater than 300 nM.

How did the IC50 turn out when `Cn1cc(-c2cccc(Cl)c2)c(C(=O)N2CC[C@H](C(=O)O)C2)c1CCCCOCc1cccc(Cl)c1` [Compound I-167] was run?
Its IC50 is greater than 300 nM.

For `Cn1c(-c2ccccc2Cl)cc(C(=O)N2CC[C@H](C(=O)O)C2)c1CCCCOCc1cccc(Cl)c1` [Compound I-171], which IC50 is on record?
The IC50 was greater than 300 nM.

For `Cn1c(CCCCCC(O)c2cccc(Cl)c2)c(C(=O)N2CC[C@H](C(=O)O)C2)c2cc(Cl)cnc21` (stereo partly drawn) [Compound I-173], which IC50 is on record?
Its IC50 is greater than 300 nM.

`Cn1c(CCCOCCc2cccc(Cl)c2)c(C(=O)N2CC[C@H](C(=O)O)C2)c2cc(Cl)cnc21` [Compound I-174] was tested. Which IC50 did it give?
Its IC50 is greater than 300 nM.

`Cn1c(CCCCOCc2cccc(Cl)c2)c(C(=O)N2CC[C@H](C(=O)O)C2)c2cc(Cl)cnc21` [Compound I-175] was tested. Which IC50 did it give?
The IC50 was greater than 300 nM.

How did the IC50 turn out when `C[C@H](CC(=O)O)CC(=O)c1c(CCCCC#Cc2cccnc2)n(C)c2ccc(Cl)cc12` [Compound I-176] was run?
Its IC50 is less than 100 nM.

How did the IC50 turn out when `Cn1c(CCCCOCc2ccccc2)c(C(=O)N2CC[C@H](C(=O)O)C2)c2cc(C#N)cnc21` [Compound I-178] was run?
Its IC50 is greater than 300 nM.

How did the IC50 turn out when `Cn1c(CCCCOCc2cccc(Cl)c2)c(C(=O)N2CC[C@H](C(=O)O)C2)c2cc(C#N)cnc21` [Compound I-179] was run?
The IC50 was greater than 300 nM.

Which IC50 does the source give for `Cn1c(CCCCOCc2cccc(Cl)c2)c(C(=O)N2CCC[C@H](C(=O)O)C2)c2cc(C#N)cnc21` [Compound I-181] here?
The IC50 was greater than 300 nM.

`Cn1c(CCCCOCc2cccc(Cl)c2)c(C(=O)N2CC[C@H](C(=O)O)C2)c2cc(C(F)(F)F)cnc21` [Compound I-183] was tested. Which IC50 did it give?
The IC50 was greater than 300 nM.

How did the IC50 turn out when `Cn1c(CCCCOCc2cccc(Cl)c2)c(C(=O)N2CC[C@H](c3nnn[nH]3)C2)c2cc(C(F)(F)F)cnc21` [Compound I-184] was run?
The IC50 was greater than 300 nM.

For `Cn1c(CCCCOCc2cccc(Cl)c2)c(C(=O)N2CC[C@H](C(=O)O)C2)c2cc(C(F)(F)F)ccc21` [Compound I-187], which IC50 is on record?
The IC50 was 100 to 300 nM.

For `Cn1c(CCCCOCc2cccc(Cl)c2)c(C(=O)N2CC[C@H](c3nnn[nH]3)C2)c2cc(C(F)(F)F)ccc21` [Compound I-188], which IC50 is on record?
Its IC50 is 100 to 300 nM.

How did the IC50 turn out when `C[C@H](CC(=O)O)CC(=O)c1c(CCCCOCc2cccc(Cl)c2)[nH]c2ccc(Cl)cc12` [Compound I-189] was run?
The IC50 was 100 to 300 nM.

How did the IC50 turn out when `Cn1nc(-c2cccc(Cl)c2)c(C(=O)N2CC[C@H](C(=O)O)C2)c1CCCCOCc1cccc(Cl)c1` [Compound I-191] was run?
The IC50 was greater than 300 nM.

How did the IC50 turn out when `Cn1nc(CCCCOCc2cccc(Cl)c2)c(C(=O)N2CC[C@H](C(=O)O)C2)c1-c1cccc(Cl)c1` [Compound I-192] was run?
The IC50 was greater than 300 nM.

With `C[C@H](CC(=O)O)CC(=O)c1c(CCCCOCc2cccc(C#N)c2)n(C)c2ncc(Cl)cc12` [Compound I-212] as the molecule, how does the IC50 read?
Its IC50 is less than 100 nM.

For `C[C@@H](CC(=O)O)CC(=O)c1c(CCCCOCc2cccc(C#N)c2)n(C)c2ncc(Cl)cc12` [Compound I-213], which IC50 is on record?
Its IC50 is greater than 300 nM.

How did the IC50 turn out when `C[C@H](CC(=O)O)CC(=O)c1c(CCCCOCc2ccc(F)cc2)n(C)c2ncc(Cl)cc12` [Compound I-215] was run?
The IC50 was greater than 300 nM.

How did the IC50 turn out when `C[C@@H](CC(=O)O)CC(=O)c1c(CCCCOCc2ccc(F)cc2)n(C)c2ncc(Cl)cc12` [Compound I-216] was run?
The IC50 was greater than 300 nM.

Reference: patent publication US20250154145A1, “OXER1 ANTAGONISTS AND USES THEREOF” (Fairhaven Pharmaceuticals Ins., priority 2021, published 2025)
